Literature values, collected in patent EP1935412A2, “Pharmaceutical composition containing 5-chloro-1-[1-[3-(2-oxo-2,3-dihydro-1H-benzimidazol-1-yl)propyl]piperidine-4-yl]-1,3-dihydro-2H-benzimidazol-2-one and method of preparing same” (GALENIX DEVELOPPEMENT, priority 2006, dated 2008).

Settings: dans l'eau

Structure (SMILES): O=c1[nH]c2ccccc2n1CCCN1CCC(n2c(=O)[nH]c3cc(Cl)ccc32)CC1 [dompéridone, 5-chloro-1-[1-[3-(2-oxo-2,3-dihydro-1H-benzimidazol-1-yl)propyl]pipéridin-4-yl]-1,3-dihydro-2H-benzimidazol-2-one]
- Solubility in water: pratiquement insoluble dans l'eau
